In the NIST ThermoML archive (doi:10.1021/je900978x):

Settings: Fluid (supercritical or subcritical phases), Buoyancy - hydrostatic balance with magnetic suspension - one sinker

CC [ethane]
Settings	mass density [kg/m3]
298.15 K, 2000 kPa	29.226
298.15 K, 5987 kPa	352.999
298.15 K, 7909 kPa	371.593
298.15 K, 10071 kPa	385.867
298.15 K, 14959 kPa	407.911
298.15 K, 20004 kPa	423.934
298.15 K, 24927 kPa	436.235
298.15 K, 29893 kPa	446.599
298.15 K, 35020 kPa	455.82
298.15 K, 39905 kPa	463.582
298.15 K, 49977 kPa	477.362
298.15 K, 75091 kPa	503.592
298.15 K, 99827 kPa	523.125
298.15 K, 119760 kPa	536.225
298.15 K, 149807 kPa	552.995
350 K, 1999 kPa	22.819
350 K, 29974 kPa	384.889
350 K, 49928 kPa	430.315
350 K, 74959 kPa	464.696
350 K, 100019 kPa	489.111
350 K, 124863 kPa	508.192
350 K, 149906 kPa	524.195
350 K, 172157 kPa	536.528
400 K, 805 kPa	7.452
400 K, 7325 kPa	84.481
400 K, 27286 kPa	311.921
400 K, 48575 kPa	383.533
400 K, 69346 kPa	421.214
400 K, 92289 kPa	450.02
400 K, 117459 kPa	473.901
400 K, 139686 kPa	491.026
400 K, 154657 kPa	501.119
400 K, 166558 kPa	508.474
400 K, 181565 kPa	517.111
400 K, 196062 kPa	524.823
450 K, 1998 kPa	16.685
450 K, 5021 kPa	44.467
450 K, 10001 kPa	96.599
450 K, 20005 kPa	202.282
450 K, 30018 kPa	272.417
450 K, 49974 kPa	346.238
450 K, 69967 kPa	388.105
450 K, 79928 kPa	403.693
450 K, 99962 kPa	429.113
450 K, 119860 kPa	449.29
450 K, 139478 kPa	465.963
